In ChEMBL document CHEMBL5316343, “Design, Synthesis, and Biological Evaluation of a Potent Dual EZH2-BRD4 Inhibitor for the Treatment of Some Solid Tumors” (J Med Chem, 2023):
pIC50: −log10 of the molar value. Activity calls are given as the source filed them. The calls are words filed in the database; no cut-off is given here.

Experiments:
BXPC-3 [1] = test: Induction of apoptosis in human BXPC-3 cells assessed as early apoptotic cells at 5 uM incubated for 48 hrs by Annexin V-FITC/PI staining based flow cytometric analysis (reference value: 3.28 %); assay type: functional
BXPC-3 [2] = test: Inhibition of colony formation in human BXPC-3 cells assessed as reduction in colony size at 0.1 to 2.5 uM incubated for 10 to 14 days in the presence of JQ1 by crystal violet staining based analysis; assay type: functional, cell-based; settings: dose 0.1-2.5 µM, time 10-14 day
[3] = biological target: T1, Histone-lysine N-methyltransferase EZH2 (Homo sapiens, UniProt Q15910); test: Inhibition of EZH2 in human BXPC-3 cells assessed as increase in H3K27ac level at 5 uM by fluorescence based analysis; assay type: cell-based
T1 sequence (Q15910 whole entry, looked up): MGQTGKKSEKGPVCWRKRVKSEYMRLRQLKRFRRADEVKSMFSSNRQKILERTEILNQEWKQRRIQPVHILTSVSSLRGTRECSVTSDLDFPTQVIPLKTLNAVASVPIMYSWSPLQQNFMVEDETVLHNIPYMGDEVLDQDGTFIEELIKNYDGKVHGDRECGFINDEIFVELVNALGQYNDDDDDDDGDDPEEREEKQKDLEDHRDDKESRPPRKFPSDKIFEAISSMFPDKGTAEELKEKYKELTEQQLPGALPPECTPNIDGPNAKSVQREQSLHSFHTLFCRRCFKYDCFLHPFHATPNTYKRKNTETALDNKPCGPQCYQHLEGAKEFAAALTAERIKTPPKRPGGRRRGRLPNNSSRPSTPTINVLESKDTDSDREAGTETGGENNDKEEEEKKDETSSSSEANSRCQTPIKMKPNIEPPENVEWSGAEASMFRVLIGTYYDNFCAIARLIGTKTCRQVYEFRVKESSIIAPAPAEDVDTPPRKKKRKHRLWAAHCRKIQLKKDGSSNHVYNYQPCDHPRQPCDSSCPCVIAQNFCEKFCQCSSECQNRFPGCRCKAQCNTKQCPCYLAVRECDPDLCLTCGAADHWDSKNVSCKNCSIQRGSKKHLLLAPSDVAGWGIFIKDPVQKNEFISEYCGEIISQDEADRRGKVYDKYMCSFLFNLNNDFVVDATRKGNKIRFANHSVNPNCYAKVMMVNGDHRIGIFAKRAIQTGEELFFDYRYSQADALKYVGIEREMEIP

BXPC-3 [4] = test: Inhibition of colony formation in human BXPC-3 cells incubated for 10 to 14 days in the presence of JQ1 by crystal violet staining based analysis; assay type: functional, cell-based; settings: dose 0.1-2.5 µM, time 10-14 day
Mus musculus [5] = test: In vivo inhibition of EZH2 in Balb/c nude mouse xenografted with human BXPC-3 cells assessed as reduction in H3K27me3 level in tumor at 60 mg/kg, ip administered daily for 30 days by IHC analysis; assay type: functional, organism-based; settings: time 30.0 day
MDA-MB-231 [6] = test: Inhibition of colony formation in human MDA-MB-231 cells assessed as reduction in colony size at 2.5 uM incubated for 10 to 14 days by crystal violet staining based analysis; assay type: functional, cell-based; settings: time 10-14 day
[7] = Toxicity in Balb/c nude mouse xenografted with human BXPC-3 cells assessed as effect on body weight at 60 mg/kg, ip administered daily for 30 days; assay type: organism-based; settings: in vivo, 720 h, time 30 day
MDA-MB-231 [8] = test: Inhibition of colony formation in human MDA-MB-231 cells incubated for 10 to 14 days in the presence of JQ1 by crystal violet staining based analysis; assay type: functional, cell-based; settings: dose 0.1-2.5 µM, time 10-14 day
[9] = biological target: T1, Histone-lysine N-methyltransferase EZH2; test: Inhibition of EZH2 in human BX-PC-3 cells assessed as decrease in H3K27me3 level at 5 uM by fluorescence based analysis; assay type: cell-based; settings: BXPC-3
MDA-MB-231 [10] = test: Induction of apoptosis in human MDA-MB-231 cells assessed as necrotic cells at 5 uM incubated for 48 hrs by Annexin V-FITC/PI staining based flow cytometric analysis (reference value: 0.63%); assay type: functional
MDA-MB-231 [11] = test: Induction of apoptosis in human MDA-MB-231 cells assessed as early apoptotic cells at 5 uM incubated for 48 hrs by Annexin V-FITC/PI staining based flow cytometric analysis (reference value: 0.69%); assay type: functional
BXPC-3 [12] = test: Inhibition of colony formation in human BXPC-3 cells assessed as reduction in number of cell colonies at 2.5 uM incubated for 10 to 14 days by crystal violet staining based analysis; assay type: functional; settings: time 10-14 day
BXPC-3 [13] = test: Inhibition of colony formation in human BXPC-3 cells assessed as reduction in number of cell colony at 0.1 to 2.5 uM incubated for 10 to 14 days in the presence of JQ1 by crystal violet staining based analysis; assay type: functional; settings: dose 0.1-2.5 µM, time 10-14 day
BXPC-3 [14] = test: Inhibition of colony formation in human BXPC-3 cells assessed as reduction in colony size at 2.5 uM incubated for 10 to 14 days by crystal violet staining based analysis; assay type: functional, cell-based; settings: time 10-14 day
[15] = biological target: T1, Histone-lysine N-methyltransferase EZH2; test: Inhibition of EZH2 in human MDA-MB-231 cells assessed as decrease in H3K27me3 level at 5 uM by fluorescence based analysis; assay type: cell-based
BXPC-3 [16] = test: Antitumor activity against human BXPC-3 cells xenografted in Balb/c nude mouse assessed as reduction in tumor growth at 60 mg/kg, ip administered daily for 30 days; assay type: functional, organism-based; settings: time 30.0 day
BXPC-3 [17] = test: Induction of apoptosis in human BXPC-3 cells assessed as viable cells at 5 uM incubated for 48 hrs by Annexin V-FITC/PI staining based flow cytometric analysis (reference value: 90.70%); assay type: functional; settings: read-out: Activity
MDA-MB-231 [18] = test: Induction of apoptosis in human MDA-MB-231 cells assessed as late apoptotic cells at 5 uM incubated for 48 hrs by Annexin V-FITC/PI staining based flow cytometric analysis (reference value: 1.06%); assay type: functional
MDA-MB-231 [19] = test: Inhibition of cell proliferation in human MDA-MB-231 cells assessed as decrease in c-Myc protein level at 5 uM incubated for 48 hrs by IHC analysis; assay type: functional, cell-based
MDA-MB-231 [20] = test: Inhibition of colony formation in human MDA-MB-231 cells assessed as reduction in number of cell colonies at 0.1 to 2.5 uM incubated for 10 to 14 days in the presence of JQ1 by crystal violet staining based analysis; assay type: functional; settings: dose 0.1-2.5 µM, time 10-14 day
MDA-MB-231 [21] = test: Inhibition of colony formation in human MDA-MB-231 cells assessed as reduction in colony size at 0.1 to 2.5 uM incubated for 10 to 14 days in the presence of JQ1 by crystal violet staining based analysis; assay type: functional, cell-based; settings: dose 0.1-2.5 µM, time 10-14 day
Mus musculus [22] = test: In vivo inhibition of EZH2 in Balb/c nude mouse xenografted with human BXPC-3 cells assessed as increase in H3K27ac level in tumor at 60 mg/kg, ip administered daily for 30 days by IHC analysis; assay type: functional, organism-based; settings: time 30.0 day
[23] = biological target: T2, Histone-lysine N-methyltransferase EZH1 (Homo sapiens, UniProt Q92800); test: Inhibition of EZH1 (unknown origin) by radiometric assay
T2 sequence (Q92800 whole entry): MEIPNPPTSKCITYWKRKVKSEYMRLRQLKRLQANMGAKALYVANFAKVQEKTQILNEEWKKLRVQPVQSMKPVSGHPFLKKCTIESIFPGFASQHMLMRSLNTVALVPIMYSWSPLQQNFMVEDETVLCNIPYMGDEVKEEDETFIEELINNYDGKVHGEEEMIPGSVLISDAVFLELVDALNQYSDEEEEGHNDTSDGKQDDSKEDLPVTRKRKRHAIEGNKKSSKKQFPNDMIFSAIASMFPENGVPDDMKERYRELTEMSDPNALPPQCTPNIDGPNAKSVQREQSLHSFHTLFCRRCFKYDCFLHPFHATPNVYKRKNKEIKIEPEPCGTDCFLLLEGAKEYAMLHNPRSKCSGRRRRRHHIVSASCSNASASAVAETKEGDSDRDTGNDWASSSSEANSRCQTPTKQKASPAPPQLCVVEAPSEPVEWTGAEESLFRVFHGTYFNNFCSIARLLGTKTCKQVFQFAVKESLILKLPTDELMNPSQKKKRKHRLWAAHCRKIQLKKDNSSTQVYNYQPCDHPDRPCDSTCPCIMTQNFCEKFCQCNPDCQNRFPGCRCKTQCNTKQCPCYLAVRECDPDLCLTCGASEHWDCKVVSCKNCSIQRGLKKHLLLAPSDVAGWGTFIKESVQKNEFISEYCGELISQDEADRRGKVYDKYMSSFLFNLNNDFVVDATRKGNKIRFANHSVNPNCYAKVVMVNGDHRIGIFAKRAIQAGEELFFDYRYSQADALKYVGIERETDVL

BXPC-3 [24] = test: Inhibition of cell proliferation in human BXPC-3 cells assessed as decrease in c-Myc protein level at 5 uM incubated for 48 hrs by IHC analysis; assay type: functional, cell-based
MDA-MB-231 [25] = test: Inhibition of cell proliferation in human MDA-MB-231 cells assessed as decrease in c-Myc mRNA level at 5 uM incubated for 48 hrs by qRT-PCR analysis; assay type: functional, cell-based
MDA-MB-231 [26] = test: Induction of apoptosis in human MDA-MB-231 cells assessed as viable cells at 5 uM incubated for 48 hrs by Annexin V-FITC/PI staining based flow cytometric analysis (reference value: 97.63%); assay type: functional; settings: read-out: Activity
BXPC-3 [27] = test: Inhibition of cell proliferation in human BXPC-3 cells assessed as decrease in c-Myc mRNA level at 5 uM incubated for 48 hrs by qRT-PCR analysis; assay type: functional, cell-based
BXPC-3 [28] = test: Induction of apoptosis in human BXPC-3 cells assessed as late apoptotic cells at 5 uM incubated for 48 hrs by Annexin V-FITC/PI staining based flow cytometric analysis (reference value: 4.38 %); assay type: functional
[29] = biological target: T1, Histone-lysine N-methyltransferase EZH2; test: Inhibition of EZH2 in human MDA-MB-231 cells assessed as increase in H3K27ac level at 5 uM by fluorescence based analysis; assay type: cell-based
BXPC-3 [30] = test: Induction of apoptosis in human BXPC-3 cells assessed as necrotic cells at 5 uM incubated for 48 hrs by Annexin V-FITC/PI staining based flow cytometric analysis (reference value: 1.65 %); assay type: functional
MDA-MB-231 [31] = test: Inhibition of colony formation in human MDA-MB-231 cells assessed as reduction in number of cell colonies at 2.5 uM incubated for 10 to 14 days by crystal violet staining based analysis; assay type: functional; settings: time 10-14 day

CCC(C)n1cc(C)c2c(C(=O)NCc3c(C)cc(C)[nH]c3=O)cc(-c3ccc(N4CCNCC4)nc3)cc21 (stereo unspecified)
Activity (BXPC-3 [1]): 3.18% | inhibition (BXPC-3 [2]): Active | inhibition [3]: Active | inhibition (BXPC-3 [4]): Dose-Dependent Effect | inhibition (Mus musculus [5]): Active | inhibition (MDA-MB-231 [6]): inactive | Activity [7]: Non-Toxic | inhibition (MDA-MB-231 [8]): Dose-Dependent Effect | inhibition [9]: Active | Activity (MDA-MB-231 [10]): 0.3% | Activity (MDA-MB-231 [11]): 1.83% | inhibition (BXPC-3 [12]): inactive | inhibition (BXPC-3 [13]): Active | inhibition (BXPC-3 [14]): inactive | inhibition [15]: Active | Activity (BXPC-3 [16]): inactive | viability at 5 µM (BXPC-3 [17]): 91.9% | Activity (MDA-MB-231 [18]): 0.92% | inhibition (MDA-MB-231 [19]): inactive | inhibition (MDA-MB-231 [20]): Active | inhibition (MDA-MB-231 [21]): Active | inhibition (Mus musculus [22]): Active | pIC50 [23]: 6.91 | inhibition (BXPC-3 [24]): inactive | inhibition (MDA-MB-231 [25]): inactive | viability at 5 µM (MDA-MB-231 [26]): 97% | inhibition (BXPC-3 [27]): inactive | Activity (BXPC-3 [28]): 3.86% | inhibition [29]: Active | Activity (BXPC-3 [30]): 0.98% | inhibition (MDA-MB-231 [31]): inactive
